Results as given in US12246079B2, “Bisacurone composition and method of skin whitening” (Vidya Herbs, Inc., priority 2019, dated 2025).

Tested on: B16F10 murine melanoma cells
Assay: Melanin content in α-MSH-stimulated B16F10 cells
Format: cell-based
Details: 400 μg, vs α-MSH alone treated B16F10 cells
Procedure: B16F10 cells (obtained from National Centre for Cell Sciences (NCCS), Pune, India) were cultured in Dulbecco's Modified Eagle's Medium (DMEM; Sigma Aldrich Co, St Louis, USA) with 10% fetal bovine serum (FBS) and penicillin/streptomycin (100 IU.50 Pg ml-1) in a humidified atmosphere of 5% CO2 at 37° C. The cells were cultured in 6-well plates for melanin quantification and enzyme activity assays.
Determination of melanin content of cells was done using a modification of the method of Bilodeau et al (Bilodeau et al 2001). In the present study, the amount of melanin was used as an index of melanogenesis. B16 F10 cells (5×10^4) were transferred to 24-well dishes and incubated in the presence or absence of 100 nM α-MSH. Cells were then incubated for 24 h with different concentration of the composition. After washing twice with PBS, samples were dissolved in 100 μl of 1N NaOH. The samples were then incubated at 60° C. for 1 h and mixed to solubilize the melanin. Absorbance at 405 nm was compared with a standard curve of synthetic melanin.
In order to assess the anti-melanogenesis activity of the composition, the melanin content was measured in both α-MSH-untreated and α-MSH-treated B16F10 cells. The cells were treated with/without α-MSH, followed by treatment with the composition at doses of 100, 200 and 400 μg/Ml (FIG. 4A).

SMILES: OC[C@H]1O[C@@H](Oc2ccc(O)cc2)[C@H](O)[C@@H](O)[C@@H]1O [arbutin]
- decrease of melanin content: 35.96%
